Reference: patent US20250213545A1 (AJOU UNIVERSITY INDUSTRY-ACADEMIC COOPERATION FOUNDATION, priority 2022, published 2025)

Key:
GFAP = GFAP staining in cortex, striatum and substantia nigra, α-synuclein injection model; type: in vivo, C57BL/6 mice; settings: PFF-fexofenadine group vs PFF-PBS; 20 mg/kg orally once a day; day 30
Protocol: The skin was sutured, and the animal was removed from the stereotaxic apparatus and placed on a heating pad for 30 minutes.

[1] = tested on: Parkinson's disease model (6-OHDA model) mice; assay: Cylinder test; type: in vivo, C57BL/6 mice; settings: 6-OHDA+fexofenadine group; 20 mg/kg orally once a day
Protocol: (§1) Specifically, 8-week-old C57BL/6 mice (Daehan Biolink, Eumseong, North Chungcheong Province, Korea) were anesthetized by intraperitoneal (i.p.) injection of 200 mg/kg of 2,2,2-tribromoethanol (Sigma-Aldrich), and they were placed in a stereotaxic apparatus (David Kopf Instruments, Tujunga, CA, USA) equipped With a mouse adapter. Using a Hamilton syringe (Hamilton, Bonaduz, Switzerland), 2 μL of 6-OHDA-HCl solution (2 mg/mL) (Sigma Aldrich) in 0.02% ascorbic acid was injected into the right striatum at the following stereotactic coordinates (mm from the bregma): IP+1.0; ML-1.8; DV −3.2. The skin was sutured, and the animal was removed from the stereotaxic apparatus and placed on a heating pad for 30 minutes. Normal control mice for the diseased mouse model were injected with a vehicle (0.02% ascorbic acid) instead of 6-OHDA-HCl solution.
(§2) Behavioral experiments were performed 18 days after 6-01-IDA injection, and mice were sacrificed 21 days after 6-01-IDA injection, and histological analysis was performed.

TH-positive neurons = settings: 6-OHDA+fexofenadine group; 20 mg/kg orally once a day; 21 days after 6-OHDA injection
Protocol: as §1, §2

[2] = tested on: BIFC-α-syn C. elegans Parkinson's disease model; assay: Life-span analysis; type: in vivo
From the text: (§3) For this purpose, A C. elegans Parkinson's disease model (Venus-αS) expressing BiFC-α-syn was produced by introducing plasmids that overexpress VN-linked α-synuclein in muscle cells of the pharynx and VC-linked α-synuclein in neurons that form synapses with muscle cells into wild-type Bristol N2 C. elegans purchased from the Caenorhabditis Genetics Center (CGC, University of Minnesota, St. Paul, MN) (Kim D-K et al., (2016). Autophagy. 12(10):1849-1863).
For this purpose, eggs laid by adults were grown to the L4 larval stage on NGM plates inoculated with K col. OP50 (CGC) at 20° C. When the L4 stage was reached, they were transferred to NGM plates including […] 5-fluoro-2′-deoxyuridine (Sigma-Aldrich, F0503) to prevent progeny production. The number of living and dead C. elegans was recorded every 1 or 2 days. Worms that burst, were buried or crawled out of the plate were also counted. Survival data were analyzed using OASIS2 (Survival Analysis Online Application for Lifespan Analysis http://sbi.postech.ac.kr/oasis/surv/).

[3] = tested on: Parkinson's disease model (6-OHDA model) mice; assay: Pole test (landing time); type: in vivo, C57BL/6 mice; settings: 20 mg/kg orally once a day
Protocol: as §1, §2
The mouse was placed on a bar with a diameter of 8 mm and a length of 55 cm, and a pole test was performed to measure the time it took for the mouse's four feet to come down to the floor (landing time).

α-synuclein aggregates = assay: BiFC-α-syn Venus fluorescence in C. elegans Parkinson's disease model; type: in vivo; settings: Venus-αS C. elegans; fexofenadine, 2 days at 20° C.; vs control not treated
From the text: as §3

Iba-1 positive microglia = assay: Microglial (Iba-1) staining in substantia nigra and striatum, 6-OHDA model; type: in vivo, C57BL/6 mice; settings: 6-OHDA+fexofenadine group; 20 mg/kg orally once a day; 21 days after 6-OHDA injection
Protocol: Specifically, 8-week-old C57BL/6 mice (Daehan Biolink, Eumseong, North Chungcheong Province, Korea) were anesthetized by intraperitoneal (i.p.) injection of 200 mg/kg of 2,2,2-tribromoethanol (Sigma-Aldrich), and they were placed in a stereotaxic apparatus (David Kopf Instruments, Tujunga, CA, USA) equipped With a mouse adapter.
Activated microglia were analyzed through staining with anti-Iba-1 antibody (Wako, 019-19741, 1:1,000 dilution). The brain tissue preparation and tissue staining method for this purpose were performed in the same manner as the TH staining method in Example 3-1, and the images were analyzed using an Axio scan. Z1 slide scanner (Carl Zeiss, Germany). The cell number was measured and analyzed as the average value of three sheets of each tissue.

[4] = tested on: Parkinson's disease model (6-OHDA model) mice; assay: Bridge test (acrossing time on a 1 m bar); type: in vivo, C57BL/6 mice; settings: 20 mg/kg orally once a day
Protocol: as §1, §2
In order to test the animal model's sense of balance, a bridge test was performed to measure the time it took to pass from one side to the other side on a 1 m long bar (acrossing time).

[5] = tested on: BIFC-α-syn C. elegans Parkinson's disease model; assay: Pharyngeal pumping analysis; type: in vivo
From the text: as §3

[6] = C. elegans wild-type N2 treated with fexofenadine
[7] = 6-OHDA+fexofenadine group, 18 days after 6-OHDA injection
[8] = normal mice (PBS-fexofenadine group)

CC(C)(C(=O)O)c1ccc(C(O)CCCN2CCC(C(O)(c3ccccc3)c3ccccc3)CC2)cc1 (stereo not shown) [fexofenadine]
GFAP expression in the cortex, striatum and substantia nigra, ipsilateral and contralateral sides (GFAP): significantly reduced | motor ability (steps of forepaw opposite the damaged striatum vs undamaged) [1]: restored to the level of the normal mouse control group | number of TH-positive neurons on the ipsilateral side of the substantia nigra (TH-positive neurons): recovered to a level similar to that of the normal mouse control group | lifespan [2, 6]: further extended | lifespan ([2]; fexofenadine-treated C. elegans Parkinson's disease model): about 14 days | landing time [3, 7]: about 6 seconds | landing time [3, 8]: approximately 4.5 seconds | Venus fluorescence intensity (α-synuclein aggregates): significantly reduced | number of Iba-1 positive microglia in the ipsilateral side of the striatum and substantia nigra (Iba-1 positive microglia): reduced to a level similar to that of the normal mouse control group | acrossing time [4, 7]: restored to a level similar to that of the normal mouse control group | acrossing time [4, 8]: improved compared to the normal mouse control group | pharyngeal pumping ability ([5]; C. elegans Parkinson's disease model, 8 days after fexofenadine treatment): restored to a level similar to that of wild-type N2 | pharyngeal pumping ability [5, 6]: improves the pharyngeal pumping ability
